In patent publication US20120100990A1, “4 -AMINOPICOLINATES AND THEIR USE AS HERBICIDES” (SYNGENTA CROP PROTECTION LLC, priority 2009, published 2012) one finds pest or weed control data, which are given here for 8 compounds.

The structures appear in SMILES notation.

Common to all, as to format: in vivo
Test [1] has as its system Alopecurus myosuroides (ALOMY). Description: Pre-emergence biological efficacy, glasshouse pot test. Particulars: 312 h, 1,000 g/ha, evaluated after 13 days, 100=total damage, 0=no damage, read-out: Percentage damage caused to weed species, pre-emergence, ALOMY. As for the experimental part: (§1) Seeds of Alopecurus myosuroides (ALOMY), Setaria faberi (SETFA), Echinochloa crus-galli (ECHCG), Solanum nigrum (SOLNI), Amaranthus retroflexus (AMARE) and Ipomea hederaceae (IPOHE) were sown in standard soil in pots. After cultivation for one day under controlled conditions in a glasshouse (at 24/16° C., day/night; 14 hours light; 65% humidity), the plants were sprayed with an aqueous spray solution derived from the formulation of the technical active ingredient in acetone/water (50:50) solution containing 0.5% Tween 20 (polyoxyethylene sorbitan monolaurate, CAS RN 9005-64-5) to give a final dose of 1000 or 250 g/ha of test compound. The test plants were then grown under controlled conditions in the glasshouse (at 24/16° C., day/night; 14 hours light; 65% humidity) and watered twice daily. After 13 days the test was evaluated (100=total damage to plant; 0=no damage to plant).

Test [2] concerns Amaranthus retroflexus (AMARE). The test is described as above. Particulars: 312 h, 1,000 g/ha, evaluated after 13 days, 100=total damage, 0=no damage, read-out: Percentage damage caused to weed species, pre-emergence, AMARE. As for the experimental part: as §1
Test [3] deals with Echinochloa crus-galli (ECHCG). The test is described as above. Conditions: 312 h, 1,000 g/ha, evaluated after 13 days, 100=total damage, 0=no damage, read-out: Percentage damage caused to weed species, pre-emergence, ECHCG. How it is done: as §1
Test [4] deals with Ipomea hederaceae (IPOHE). The description is as above. Conditions: Ipomoea hederacea, 312 h, 1,000 g/ha, evaluated after 13 days, 100=total damage, 0=no damage, read-out: Percentage damage caused to weed species, pre-emergence, IPOHE. How it is done: as §1
Test [5] relates to Setaria faberi (SETFA). Described as above. Particulars: 312 h, 1,000 g/ha, evaluated after 13 days, 100=total damage, 0=no damage, read-out: Percentage damage caused to weed species, pre-emergence, SETFA. As for the experimental part:
as §1

Test [6] has as its system Solanum nigrum (SOLNI). The description is as above. Particulars: 312 h, 1,000 g/ha, evaluated after 13 days, 100=total damage, 0=no damage, read-out: Percentage damage caused to weed species, pre-emergence, SOLNI. As for the experimental part: as §1
Test [7] concerns Alopecurus myosuroides (ALOMY). Nature of the test: Post-emergence biological efficacy, glasshouse pot test. Conditions: 312 h, 1,000 g/ha, evaluated after 13 days, 100=total damage, 0=no damage, read-out: Percentage damage caused to weed species, post-emergence, ALOMY. As for the experimental part: as §1, with “for 8 days” for “for one day”, “grown on” for “grown”, “in a” for “in the”

For test [8], the system named is Amaranthus retroflexus (AMARE). The test is described as above. Particulars: 312 h, 1,000 g/ha, evaluated after 13 days, 100=total damage, 0=no damage, read-out: Percentage damage caused to weed species, post-emergence, AMARE. As for the experimental part: as §1, with “for 8 days” for “for one day”, “grown on” for “grown”, “in a” for “in the”
For test [9], the system named is Echinochloa crus-galli (ECHCG). Described as above. Particulars: 312 h, 1,000 g/ha, evaluated after 13 days, 100=total damage, 0=no damage, read-out: Percentage damage caused to weed species, post-emergence, ECHCG. How it is done:
as §1, with “for 8 days” for “for one day”, “grown on” for “grown”, “in a” for “in the”

For test [10], the system named is Ipomea hederaceae (IPOHE). The description is as above. Particulars: Ipomoea hederacea, 312 h, 1,000 g/ha, evaluated after 13 days, 100=total damage, 0=no damage, read-out: Percentage damage caused to weed species, post-emergence, IPOHE. How it is done:
as §1, with “for 8 days” for “for one day”, “grown on” for “grown”, “in a” for “in the”

Test [11] relates to Setaria faberi (SETFA). The description is as above. Conditions: 312 h, 1,000 g/ha, evaluated after 13 days, 100=total damage, 0=no damage, read-out: Percentage damage caused to weed species, post-emergence, SETFA. How it is done:
as §1, with “for 8 days” for “for one day”, “grown on” for “grown”, “in a” for “in the”

For test [12], the system named is Solanum nigrum (SOLNI). The test is described as above. Particulars: 312 h, 1,000 g/ha, evaluated after 13 days, 100=total damage, 0=no damage, read-out: Percentage damage caused to weed species, post-emergence, SOLNI. As for the experimental part:
as §1, with “for 8 days” for “for one day”, “grown on” for “grown”, “in a” for “in the”

Take `COC(=O)c1nc(Cl)cc(NCc2ccccc2)c1Cl` [Compound 2-2, 3,6-Dichloro-4-phenylmethyl-amino-pyridine-2-carboxylic acid methyl ester]: the pest or weed control at 1000 g/ha in test [1] worked out at 60%; in [2], 100%; in test [3] it was 30%; in [4], 90%; with Setaria faberi (SETFA) [5] it was 80%; in the test on Solanum nigrum (SOLNI) [6], 100%. Moreover, the pest or weed control at 1000 g/ha came to 50% in test [7]; 100% in [8]; 60% in [9]; 70% in [10]; 80% in the test with Setaria faberi (SETFA) [11]; 100% in the test with Solanum nigrum (SOLNI) [12].

As for `C=Cc1c(NCc2ccccc2C)cc(Cl)nc1C(=O)OC` [Compound 9-12, 6-Chloro-3-ethenyl-4-[(2-methylphenyl-methyl)-amino]-pyridine-2-carboxylic acid methyl ester], the pest or weed control at 1000 g/ha in test [1] came to 10%; in [2], 90%; in test [3] it was 10%; in [4] it was 60%; with Setaria faberi (SETFA) [5], 0%; with Solanum nigrum (SOLNI) [6], 100%. Moreover, the pest or weed control at 1000 g/ha was 40% in test [7]; 100% in test [8]; 50% in [9]; 40% in [10]; 50% with Setaria faberi (SETFA) [11]; 80% in the test with Solanum nigrum (SOLNI) [12].

Consider `COC(=O)c1nc(Cl)cc(N(CCO)Cc2ccco2)c1Cl` [Compound 66-2, 3,6-Dichloro-4-[N-(furan-2-ylmethyl)-N-(2-hydroxyethyl)-amino]-pyridine-2-carboxylic acid methyl ester], for which the pest or weed control at 1000 g/ha in test [1] turned out to be 80%; in test [2], 100%; in [3] it was 50%; in test [4], 100%; in the test on Setaria faberi (SETFA) [5], 70%; in the test with Solanum nigrum (SOLNI) [6] it was 100%. The pest or weed control at 1000 g/ha in test [7] was determined as 20%; in [8], 100%; in [9], 20%; in [10], 60%; in the test with Setaria faberi (SETFA) [11] it was 0%; in the test with Solanum nigrum (SOLNI) [12] it was 80%.

With `C=Cc1c(NCc2ccccc2F)cc(Cl)nc1C(=O)OC` [Compound 6-12, 6-Chloro-3-ethenyl-4-[(2-fluorophenyl-methyl)-amino]-pyridine-2-carboxylic acid methyl ester], the pest or weed control at 1000 g/ha is 40% in [1]; 100% in test [2]; 30% in [3]; 60% in test [4]; 40% in the test on Setaria faberi (SETFA) [5]; 100% in the test on Solanum nigrum (SOLNI) [6]. The pest or weed control at 1000 g/ha in test [7] amounted to 20%; in [8], 100%; in test [9], 20%; in test [10] it was 70%; with Setaria faberi (SETFA) [11] it was 80%; with Solanum nigrum (SOLNI) [12], 90%.

As for `COC(=O)c1nc(Cl)cc(NCC2CCCCC2)c1Cl` [Compound 67-2, 4- Cyclohexylmethyl amino-3,6-dichloro-pyridine-2-carboxylic acid methyl ester], the pest or weed control at 1000 g/ha in [1] amounted to 20%; in test [2], 100%; in [3], 10%; in [4], 80%; in the test on Setaria faberi (SETFA) [5] it was 60%; with Solanum nigrum (SOLNI) [6] it was 90%. The pest or weed control at 1000 g/ha in test [7] is 30%; in test [8], 100%; in [9] it was 20%; in [10] it was 70%; in the test on Setaria faberi (SETFA) [11], 20%; with Solanum nigrum (SOLNI) [12], 100%.

`COC(=O)c1nc(Cl)cc(NCc2ccco2)c1Br` [Compound 26-17, 3-Bromo-6-chloro-4-[(furan-2-ylmethyl)-amino]-pyridine-2-carboxylic acid methyl ester]: the pest or weed control at 1000 g/ha in [1] turned out to be 50%; in [2] it was 100%; in [3], 50%; in [4], 100%; in the test with Setaria faberi (SETFA) [5], 80%; in the test with Solanum nigrum (SOLNI) [6] it was 100%. The pest or weed control at 1000 g/ha was determined as 70% in test [7]; 100% in test [8]; 60% in [9]; 60% in [10]; 80% in the test on Setaria faberi (SETFA) [11]; 90% with Solanum nigrum (SOLNI) [12].

With `C=Cc1c(NCC2CC2)cc(Cl)nc1C(=O)OC` [Compound 1-12, 6-chloro-4-cyclopropylmethylamino-3-ethenyl-pyridine-2-carboxylic acid methyl ester], the pest or weed control at 1000 g/ha came to 80% in test [1]; 100% in test [2]; 90% in test [3]; 90% in [4]; 90% with Setaria faberi (SETFA) [5]; 100% with Solanum nigrum (SOLNI) [6]. Moreover, the pest or weed control at 1000 g/ha worked out at 70% in test [7]; 100% in [8]; 80% in [9]; 70% in test [10]; 90% in the test with Setaria faberi (SETFA) [11]; 90% in the test on Solanum nigrum (SOLNI) [12].

As to `COC(=O)c1nc(Cl)cc(NC[C@@H]2CCCC[C@H]2O)c1Cl` [Compound 68-2, 3,6-Dichloro-pyridine-4-[trans-(2-hydroxycyclohexyl-methyl)-amino]-2-carboxylic acid methyl ester], the pest or weed control at 1000 g/ha stood at 70% in test [1]; 100% in test [2]; 0% in [3]; 90% in test [4]; 80% with Setaria faberi (SETFA) [5]; 100% with Solanum nigrum (SOLNI) [6]. Besides, the pest or weed control at 1000 g/ha in test [7] amounted to 40%; in [8], 100%; in test [9] it was 20%; in [10], 70%; in the test with Setaria faberi (SETFA) [11], 70%; with Solanum nigrum (SOLNI) [12] it was 100%.
